From the supplement of paper PMC11208160

assay: recombinant barcode read abundance after kanamycin selection (control-corrected) (log10(CPM+1)); higher = more efficient recombination; sequences stand for … in AGTGCAGAGAAAATCGGCCAGTTTTCTCTGCCTGCAGTCCGCATGCCGT…AGATTTATGCAGCGGACTGCCTTTCTCCCAAAGTGATAAACCGGACAGTATCATGGACCGGTTTTCCCGGTAATCCGTATTTGCAAGGTTGGTTTCACT; site = the 11-nt target
Method in brief: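 Recombination efficiency in this pooled E. coli screen uses counts per million of barcodes at recombinant junctions, averaged and corrected against the control. The reported form is log10(CPM+1). Two replicates were plated on chloramphenicol/ampicillin LB agar as control and two on chloramphenicol/ampicillin/kanamycin with 0.1 mM IPTG.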
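Note: IS621 recombinase and bridge RNA in Escherichia coli cells.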

Sequence | recombinant barcode read abundance (log10)
TAGCGGCCTTGGGTTCTAACCTGTTGCGG (site CCAGTATCTAT) | 0.453
GTGAGGCCTTGGGTTCTAACCTGTTGCCT (site GTGAGGCCTAG) | 0.153
GAGGGCCCTTGGGTTCTAACCTGTTGCGG (site GAGGGCCCTCC) | 3.11
TAGAAAGCTTGGGTTCTAACCTGTTGCCA (site TAGAAAGCTTG) | 0.633
ATAGGAACTTGGGTTCTAACCTGTTGCCT (site ATGGGCACTAG) | 0.0276
GTGTTTGCTTGGGTTCTAACCTGTTGCCT (site GCGTTTGCTAG) | 0.0586
GTTTGTTCTTGGGTTCTAACCTGTTGCCT (site GTTTGTTCTAG) | 0.254
CTCCATGCTTGGGTTCTAACCTGTTGCCT (site CTCCATTCTAG) | 0.0894
AGTATCGCTTGGGTTCTAACCTGTTGCGG (site AGTGTCGCTCC) | 0.0704
ACTAGTCCTTGGGTTCTAACCTGTTGCCT (site ACTAGTCCTAC) | 0.649
AACGAGTCTTGGGTTCTAACCTGTTGCCT (site ACCGAGTCTAG) | 0.152
AGCTATGCTTGGGTTCTAACCTGTTGCCT (site AGCTATGCTAG) | 0.317
TGCCTAGCTTGGGTTCTAACCTGTTGCCT (site TGGCTAGCTAG) | 0.11
CCGAGTCCTTGGGTTCTAACCTGTTGCCT (site CCGAATCCTAG) | 0.328
GGTGCGGCTTGGGTTCTAACCTGTTGCCT (site AGTGCGGCTAG) | 0.492
CTAGCCACTTGGGTTCTAACCTGTTGCTA (site CTAGCCACTTA) | 1.01
CTGCGCCCTTGGGTTCTAACCTGTTGCCT (site CTGAGCCCTAG) | 0.0517
GGCCGGACTTGGGTTCTAACCTGTTGCCT (site GGCCGGGCTAG) | 0.112
TGTTCTACTTGGGTTCTAACCTGTTGCCG (site TGTTCTACTCG) | 0.0964
ACTAGTGCTTGGGTTCTAACCTGTTGCCT (site ACTAGTGCTAG) | 0.117
CTCCATTCTTGGGTTCTAACCTGTTGCCT (site CTCCATACTAG) | 0.0751
GACTCTACTTGGGTTCTAACCTGTTGCTT (site GATTCTACTAA) | 0.0521

Sequence | recombinant barcode read abundance (log10)
TCCGTGCCTTGGGTTCTAACCTGTTGCCT (site TCCGTGTCTAG) | 0.17
CTGAGGACTTGGGTTCTAACCTGTTGCCT (site CTGAGGACTAG) | 1.29
TGAGGCACTTGGGTTCTAACCTGTTGCCT (site TGAGGATCTAG) | 0.03
CCTGAATCTTGGGTTCTAACCTGTTGCCT (site CCTGAATCTAG) | 0.1
AGGACCACTTGGGTTCTAACCTGTTGCCA (site AGGACCACTTG) | 0.868
AAACCGCCTTGGGTTCTAACCTGTTGCCT (site AAACCGCCTAG) | 1.11
CATAGTCCTTGGGTTCTAACCTGTTGCAT (site CATAGTCCTAT) | 0.923
ACCGCGACTTGGGTTCTAACCTGTTGCCT (site ACCGCGACTAG) | 0.0908
CTCATTCCTTGGGTTCTAACCTGTTGCTT (site CTCATTCCTAA) | 0.211
CTTTGCCCTTGGGTTCTAACCTGTTGCCT (site CATTGCCCTAG) | 0.179
GGCTTCTCTTGGGTTCTAACCTGTTGCCT (site TGCCTCTCTAG) | 0.0687
CTATGACCTTGGGTTCTAACCTGTTGCGT (site CTATGACCTAA) | 0.191
CGGTCATCTTGGGTTCTAACCTGTTGCCT (site CGCTCATCTAG) | 0.171
TAGTGAACTTGGGTTCTAACCTGTTGCAC (site GCCGAGCCTTG) | 0.0124
GGCATCCCTTGGGTTCTAACCTGTTGCCT (site GGCCTCCCTAG) | 0.258
GTCTCATCTTGGGTTCTAACCTGTTGCCT (site GTCTGATCTAG) | 0.0892
AACATTGCTTGGGTTCTAACCTGTTGCCT (site AACAATGCTAG) | 0.765
CTACAGACTTGGGTTCTAACCTGTTGCGA (site CTACAGACTAC) | 0.0546
GCACTACCTTGGGTTCTAACCTGTTGCCT (site GCACGACCTAG) | 0.166
GACCGTCCTTGGGTTCTAACCTGTTGCCA (site GACCGTCCTTG) | 0.761
AACAGGTCTTGGGTTCTAACCTGTTGCCT (site AGCAGGTCTAG) | 0.0529
GGGGCGTCTTGGGTTCTAACCTGTTGCCT (site GGGGCGCCTAG) | 0.426

Sequence | recombinant barcode read abundance (log10)
CGGATTGCTTGGGTTCTAACCTGTTGCCT (site CGGATAGCTAG) | 0
ACCCAGCCTTGGGTTCTAACCTGTTGCCT (site ACCCAGCCTAT) | 0.522
GGTGGATCTTGGGTTCTAACCTGTTGCCT (site GGTGACTCTAG) | 0.0125
CGAAGGACTTGGGTTCTAACCTGTTGCTA (site CGAAGGACTTA) | 0.973
CATGCCGCTTGGGTTCTAACCTGTTGCCT (site CATGACACTAG) | 0.226
CGAACTACTTGGGTTCTAACCTGTTGCAT (site CGAACTACTAC) | 0.168
ACAAGGGCTTGGGTTCTAACCTGTTGCCT (site ACAAGGGCTAG) | 0.547
TGCTTCCCTTGGGTTCTAACCTGTTGCGG (site TGGTGCCCTCC) | 0.114
CTAGCAGCTTGGGTTCTAACCTGTTGCAT (site CTAGCAACTAA) | 0.197
GGGCATCCTTGGGTTCTAACCTGTTGCTT (site GGGCATCCTAA) | 0.652
CACACCACTTGGGTTCTAACCTGTTGCCT (site CACACCACTAG) | 0.698
TCAAGGCCTTGGGTTCTAACCTGTTGCCT (site ACAAGGCCTAG) | 0.147
AAGAGCACTTGGGTTCTAACCTGTTGCCT (site AAGAGCACTAG) | 1.17
TAGTCAACTTGGGTTCTAACCTGTTGCGT (site TAGTCAACTAC) | 0.593
GTAGTAGCTTGGGTTCTAACCTGTTGCCT (site GTAGTAACTAG) | 0.954
CTTCGTCCTTGGGTTCTAACCTGTTGCGT (site CTTCGTCCTAT) | 0.797
ACCCAGCCTTGGGTTCTAACCTGTTGCCT (site ACCCAGCCTAG) | 1.44
GCTCCTACTTGGGTTCTAACCTGTTGCCT (site GCTCCTACTAG) | 0.0272
CATAGCTCTTGGGTTCTAACCTGTTGCCT (site TATAGCTCTAG) | 0.337
CACTTCCCTTGGGTTCTAACCTGTTGCGT (site CACTTCCCTAC) | 2.4
CGCCTTCCTTGGGTTCTAACCTGTTGCAT (site CGCCTTCCTAT) | 0.0767
GACTTTCCTTGGGTTCTAACCTGTTGCAT (site GACTTTCCTAT) | 0.101
